Values quoted from earlier work, collected in patent publication US6964965B2, “Substituted pyrazine derivatives” (Pharmacia & Upjohn, priority 2002, dated 2005).

Tests used:
CRF = conditions: for effect on the “anxiogenic” effects / actions of CRF in the conflict test: conflict test (operant conflict test)
[1] = tested on: human epidermal keratinocyte cells; conditions: cultured human epidermal keratinocyte cells

| Compound | behavioral activity of the substance alone in the operant conflict test (CRF; alone, without CRF) | effect on the “anxiogenic” effects / actions of CRF in the conflict test (CRF) | keratinocyte cell proliferation promoting effect [1] |
| --- | --- | --- | --- |
| CCOC(=O)c1ncn2c1CN(C)C(=O)c1cc(F)ccc1-2 [Ro 15-1788] | without behavioral activity alone | reversed the effects of CRF in a dose-dependent manner | – |
| CCN(c1nc(C)cc(N2CC=C(c3cccc(F)c3)CC2)n1)c1ccc(C(C)C)cc1SC [2-[N-(2-methylthio-4-isopropylphenyl)-N-ethylamino]-4-[4-(3-fluorophenyl)-1,2,3,6-tetrahydropyridine-1-yl]-6-methylpyrimidine] | – | – | showed keratinocyte cell proliferation promoting effect |
| CNC(=O)c1cc2c(cn1)[nH]c1ccccc12 [FG 7142] | – | enhanced the actions of CRF | – |
